Reference: patent US9802927B2, “Oxadiazine compounds and methods of use thereof” (Denali Therapeutics, Inc., priority 2015, dated 2017)

Tested on: Aβ42
Experiment: In vitro cell screening assay in H4 cells expressing human APP751: Aβ42 by sandwich ELISA
Format: cell-based
Conditions: compounds 0.003-10 μM, incubated overnight (16-18 h), sandwich ELISA of supernatant
How it was run: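 Secreted Aβ42 measured by sandwich ELISA, C-terminal-specific capture and 4G8-HRP detection, TMB read at 450 nm, from supernatants of APP751-expressing H4 cells exposed overnight (16-18 h) to 0.003-10 μM compound in Pro293 medium, 0.33% DMSO. Data scaled between DMSO and DAPT controls; EC50 from variable-slope nonlinear regression.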

| Structure (SMILES) | EC50 |
| --- | --- |
| COc1nc(C2=NOCC(c3cc4cc(C5CC5)ccc4o3)N2)ccc1-n1cnc(C)c1 (single isomer, unassigned; (-)) [Example 234A, (−)-5-(5-cyclopropylbenzofuran-2-yl)-3-(6-methoxy-5-(4-methyl-1H-imidazol-1-yl)pyridin-2-yl)-5,6-dihydro-4H-1,2,4-oxadiazine] | 425 nM |
| COc1nc(C2=NOCC(c3ccc(C(C)(C)C)cc3)N2)ccc1-n1cnc(C)c1 (single isomer, unassigned; (-)) [Example 235A, (−)-5-(4-(tert-butyl)phenyl)-3-(6-methoxy-5-(4-methyl-1H-imidazol-1-yl)pyridin-2-yl)-5,6-dihydro-4H-1,2,4-oxadiazine] | 763 nM |
| COc1nc(C2=NOCC(c3cc4ccc(C5CC5)cc4o3)N2)ccc1-n1cnc(C)c1 (single isomer, unassigned; (-)) [Example 236A, (−)-5-(6-cyclopropylbenzofuran-2-yl)-3-(6-methoxy-5-(4-methyl-1H-imidazol-1-yl)pyridin-2-yl)-5,6-dihydro-4H-1,2,4-oxadiazine] | 397 nM |
| COc1nc(C2=NOCC(c3cn(C)c4ccc(Cl)c(F)c34)N2)ccc1-n1cnc(C)c1 (single isomer, unassigned; (-)) [Example 237B, (−)-5-(5-chloro-4-fluoro-1-methyl-1H-indol-3-yl)-3-(6-methoxy-5-(4-methyl-1H-imidazol-1-yl)pyridin-2-yl)-5,6-dihydro-4H-1,2,4-oxadiazine] | 47.1 nM |
| COc1nc(C2=NOCC(c3ccc4nc(C)sc4c3)N2)ccc1-n1cnc(C)c1 (single isomer, unassigned; (-)) [Example 238A, (−)-3-(6-methoxy-5-(4-methyl-1H-imidazol-1-yl)pyridin-2-yl)-5-(2-methylbenzo[d]thiazol-6-yl)-5,6-dihydro-4H-1,2,4-oxadiazine] | > 3000 nM |
| COc1nc(C2=NOCC(c3ccc(Cl)c(C4CC4)c3)N2)ccc1-n1cnc(C)c1 (single isomer, unassigned; (-)) [Example 239A, (−)-5-(4-chloro-3-cyclopropylphenyl)-3-(6-methoxy-5-(4-methyl-1H-imidazol-1-yl)pyridin-2-yl)-5,6-dihydro-4H-1,2,4-oxadiazine] | 920 nM |
| COc1nc(C2=NOCC(c3ccc4scnc4c3)N2)ccc1-n1cnc(C)c1 (single isomer, unassigned; (-)) [Example 240A, (−)-5-(benzo[d]thiazol-5-yl)-3-(6-methoxy-5-(4-methyl-1H-imidazol-1-yl)pyridin-2-yl)-5,6-dihydro-4H-1,2,4-oxadiazine] | > 3000 nM |
| COc1nc(C2=NOCC(c3nn(C)c4ccc(C(F)(F)F)cc34)N2)ccc1-n1cnc(C)c1 (single isomer, unassigned; (-)) [Example 241A, (−)-3-(6-methoxy-5-(4-methyl-1H-imidazol-1-yl)pyridin-2-yl)-5-(1-methyl-5-(trifluoromethyl)-1H-indazol-3-yl)-5,6-dihydro-4H-1,2,4-oxadiazine] | 386 nM |
| COc1nc(C2=NOCC(c3cccc(OC(F)(F)F)c3)N2)ccc1-n1cnc(C)c1 (single isomer, unassigned; (-)) [Example 242A, (−)-3-(6-methoxy-5-(4-methyl-1H-imidazol-1-yl)pyridin-2-yl)-5-(3-(trifluoromethoxy)phenyl)-5,6-dihydro-4H-1,2,4-oxadiazine] | 709 nM |
| COc1nc(C2=NOCC(c3ccc(C4CC4)c(Cl)c3)N2)ccc1-n1cnc(C)c1 (single isomer, unassigned; (-)) [Example 243A, (−)-5-(3-chloro-4-cyclopropylphenyl)-3-(6-methoxy-5-(4-methyl-1H-imidazol-1-yl)pyridin-2-yl)-5,6-dihydro-4H-1,2,4-oxadiazine] | 250 nM |
| COc1nc(C2=NOCC(c3cccc(Cl)c3)N2)ccc1-n1cnc(C)c1 (single isomer, unassigned; (-)) [Example 244A, (−)-5-(3-chlorophenyl)-3-(6-methoxy-5-(4-methyl-1H-imidazol-1-yl)pyridin-2-yl)-5,6-dihydro-4H-1,2,4-oxadiazine] | 668 nM |
| COc1nc(C2=NOCC(c3cn(C)c4ccc(C#N)cc34)N2)ccc1-n1cnc(C)c1 (single isomer, unassigned; (-)) [Example 245A, (−)-3-(3-(6-methoxy-5-(4-methyl-1H-imidazol-1-yl)pyridin-2-yl)-5,6-dihydro-4H-1,2,4-oxadiazin-5-yl)-1-methyl-1H-indole-5-carbonitrile] | 554 nM |
| COc1nc(C2=NOCC(C3Cc4ccccc4C3)N2)ccc1-n1cnc(C)c1 (single isomer, unassigned; (-)) [Example 246A, (−)-5-(2,3-dihydro-1H-inden-2-yl)-3-(6-methoxy-5-(4-methyl-1H-imidazol-1-yl)pyridin-2-yl)-5,6-dihydro-4H-1,2,4-oxadiazine] | 576 nM |
| COc1nc(C2=NOCC(c3cn(C)c4cccc(C#N)c34)N2)ccc1-n1cnc(C)c1 (single isomer, unassigned; (-)) [Example 247B, (−)-3-(3-(6-methoxy-5-(4-methyl-1H-imidazol-1-yl)pyridin-2-yl)-5,6-dihydro-4H-1,2,4-oxadiazin-5-yl)-1-methyl-1H-indole-4-carbonitrile] | 79.2 nM |
| COc1nc(C2=NOCC(c3ccc4c(c3)CCC4)N2)ccc1-n1cnc(C)c1 (single isomer, unassigned; (-)) [Example 248A, (−)-5-(2,3-dihydro-1H-inden-5-yl)-3-(6-methoxy-5-(4-methyl-1H-imidazol-1-yl)pyridin-2-yl)-5,6-dihydro-4H-1,2,4-oxadiazine] | 474 nM |
| COc1nc(C2=NOCC(c3cn(C)c4cc(C#N)ccc34)N2)ccc1-n1cnc(C)c1 (single isomer, unassigned; (-)) [Example 249A, (−)-3-(3-(6-methoxy-5-(4-methyl-1H-imidazol-1-yl)pyridin-2-yl)-5,6-dihydro-4H-1,2,4-oxadiazin-5-yl)-1-methyl-1H-indole-6-carbonitrile] | 429 nM |
| COc1ccc2c(c1)c(C1CON=C(c3ccc(-n4cnc(C)c4)c(OC)n3)N1)cn2C (single isomer, unassigned; (-)) [Example 250A, (−)-5-(5-methoxy-1-methyl-1H-indol-3-yl)-3-(6-methoxy-5-(4-methyl-1H-imidazol-1-yl)pyridin-2-yl)-5,6-dihydro-4H-1,2,4-oxadiazine] | 202 nM |
| COc1nc(C2=NOCC(c3cn(C)c4cccc(OC)c34)N2)ccc1-n1cnc(C)c1 (single isomer, unassigned; (-)) [Example 252A, (−)-5-(4-methoxy-1-methyl-1H-indol-3-yl)-3-(6-methoxy-5-(4-methyl-1H-imidazol-1-yl)pyridin-2-yl)-5,6-dihydro-4H-1,2,4-oxadiazine] | 158 nM |
| COc1nc(C2=NOCC(c3cn(C)c4cc(Cl)cc(OC)c34)N2)ccc1-n1cnc(C)c1 (single isomer, unassigned; (-)) [Example 254A, (−)-5-(6-chloro-4-methoxy-1-methyl-1H-indol-3-yl)-3-(6-methoxy-5-(4-methyl-1H-imidazol-1-yl)pyridin-2-yl)-5,6-dihydro-4H-1,2,4-oxadiazine] | 148 nM |
| COc1cc2c(cc1Cl)c(C1CON=C(c3ccc(-n4cnc(C)c4)c(OC)n3)N1)cn2C (single isomer, unassigned; (-)) [Example 255A, (−)-5-(5-chloro-6-methoxy-1-methyl-1H-indol-3-yl)-3-(6-methoxy-5-(4-methyl-1H-imidazol-1-yl)pyridin-2-yl)-5,6-dihydro-4H-1,2,4-oxadiazine] | 70.4 nM |
| COc1nc(C2=NOCC(c3cn(C)c4cc(S(C)(=O)=O)ccc34)N2)ccc1-n1cnc(C)c1 (single isomer, unassigned; (-)) [Example 256A, (−)-3-(6-methoxy-5-(4-methyl-1H-imidazol-1-yl)pyridin-2-yl)-5-(1-methyl-6-(methylsulfonyl)-1H-indol-3-yl)-5,6-dihydro-4H-1,2,4-oxadiazine] | 2590 nM |
| COc1nc(C2=NOCC(c3cn(C)c4cc(F)c(C)cc34)N2)ccc1-n1cnc(C)c1 (single isomer, unassigned; (-)) [Example 257A, (−)-5-(6-fluoro-1,5-dimethyl-1H-indol-3-yl)-3-(6-methoxy-5-(4-methyl-1H-imidazol-1-yl)pyridin-2-yl)-5,6-dihydro-4H-1,2,4-oxadiazine] | 120 nM |
| COc1ccc2c(C3CON=C(c4ccc(-n5cnc(C)c5)c(OC)n4)N3)cn(C)c2c1 (single isomer, unassigned; (-)) [Example 258A, (−)-5-(6-methoxy-1-methyl-1H-indol-3-yl)-3-(6-methoxy-5-(4-methyl-1H-imidazol-1-yl)pyridin-2-yl)-5,6-dihydro-4H-1,2,4-oxadiazine] | 154 nM |
| COc1nc(C2=NOCC(c3cc4cc(C(F)(F)F)ccc4o3)N2)ccc1-n1cnc(C)c1 (single isomer, unassigned; (-)) [Example 259A, (−)-3-(6-methoxy-5-(4-methyl-1H-imidazol-1-yl)pyridin-2-yl)-5-(5-(trifluoromethyl)benzofuran-2-yl)-5,6-dihydro-4H-1,2,4-oxadiazine] | 2460 nM |
| COc1nc(C2=NOCC(c3cc4ccc(C(F)(F)F)cc4o3)N2)ccc1-n1cnc(C)c1 (single isomer, unassigned; (-)) [Example 260A, (−)-3-(6-methoxy-5-(4-methyl-1H-imidazol-1-yl)pyridin-2-yl)-5-(6-(trifluoromethyl)benzofuran-2-yl)-5,6-dihydro-4H-1,2,4-oxadiazine] | 2320 nM |
| COc1cc(Cl)c2c(C3CON=C(c4ccc(-n5cnc(C)c5)c(OC)n4)N3)cn(C)c2c1 (single isomer, unassigned; (-)) [Example 261B, (−)-5-(4-chloro-6-methoxy-1-methyl-1H-indol-3-yl)-3-(6-methoxy-5-(4-methyl-1H-imidazol-1-yl)pyridin-2-yl)-5,6-dihydro-4H-1,2,4-oxadiazine] | 21.2 nM |
